From patent US8476302B2, “α-ketoamide derivatives useful endothelial lipase inhibitors” (Janssen Pharmaceutica N.V., priority 2010, dated 2013)
Values joined by “and” are separate entries in the source; they are usually repeats but may differ in a detail not shown here. Equal values may be shown once.

Legend:
[1] = molecular target: T1, human endothelial lipase (EL) (Homo sapiens, UniProt Q9Y5X9); assay: Endothelial Lipase Assay, cell surface lipase activity (human); format: cell-based; details: cells expressing human EL, PLA1 substrate 10 μM, fluorescence reaction rate; several values in a cell are repeat determinations
T1 construct: host or cells: cells expressing human endothelial lipase
T1 sequence (Q9Y5X9 21-500): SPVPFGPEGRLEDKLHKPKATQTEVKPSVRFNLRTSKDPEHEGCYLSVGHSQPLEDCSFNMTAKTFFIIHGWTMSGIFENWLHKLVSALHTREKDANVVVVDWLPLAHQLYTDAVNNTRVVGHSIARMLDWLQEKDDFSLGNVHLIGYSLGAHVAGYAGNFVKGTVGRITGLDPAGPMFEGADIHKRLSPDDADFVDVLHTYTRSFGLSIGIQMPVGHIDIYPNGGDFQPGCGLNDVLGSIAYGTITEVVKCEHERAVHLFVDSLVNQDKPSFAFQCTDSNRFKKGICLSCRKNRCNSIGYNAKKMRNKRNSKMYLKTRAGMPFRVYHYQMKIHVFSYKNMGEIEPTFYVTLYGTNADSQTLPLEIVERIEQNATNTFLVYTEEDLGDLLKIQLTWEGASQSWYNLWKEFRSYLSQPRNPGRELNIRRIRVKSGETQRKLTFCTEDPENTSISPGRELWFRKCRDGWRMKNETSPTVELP
Description: (§1) Endothelial Lipase Assay (Human/Mouse)
(§2) To assay for cell surface lipase activity, cells expressing human endothelial lipase (EL) or LPL were plated in CellBIND® 384-well plates (Corning, Lowell, Mass.) in 25 μL serum free medium at a density of 2000 cells/well. After 18-24 hours incubation at 37° C., the medium was removed and replaced with 15 μL assay buffer [Hank's Buffered Saline Solution with 25 mM HEPES pH 7.2] and 15 μL PLA1 for a final concentration of 10 μM using a Multidrop reagent dispenser. Fluorescence signal was monitored for 30 min at 37° C. on a Safire II plate reader in kinetic mode (60 cycles, kinetic interval: 30 seconds) with an excitation wavelength of 490 nm and an emission wavelength of 515 nm. Linear regression of the fluorescence intensity collected from 480 to 1500 seconds was used to calculate the reaction rate (the slope) and the slopes were used to calculate IC50 values where appropriate. The amount of BODIPY-labeled product generated was calculated at the 30 min time point as determined from standard curve analysis of purified BODIPY FL C5. In all studies using the inhibitor Ebelactone B, consistent results were obtained when it was dissolved as a stock in DMSO, immediately before use.

[2] = molecular target: T2, Mouse EL (Mus musculus, UniProt Q9WVG5); assay: Endothelial Lipase Assay, cell surface lipase activity (mouse); format: cell-based; details: PLA1 substrate 10 μM, fluorescence reaction rate, several values in a cell are repeat determinations
T2 construct: host or cells: not described for mouse EL
T2 sequence (Q9WVG5 21-500): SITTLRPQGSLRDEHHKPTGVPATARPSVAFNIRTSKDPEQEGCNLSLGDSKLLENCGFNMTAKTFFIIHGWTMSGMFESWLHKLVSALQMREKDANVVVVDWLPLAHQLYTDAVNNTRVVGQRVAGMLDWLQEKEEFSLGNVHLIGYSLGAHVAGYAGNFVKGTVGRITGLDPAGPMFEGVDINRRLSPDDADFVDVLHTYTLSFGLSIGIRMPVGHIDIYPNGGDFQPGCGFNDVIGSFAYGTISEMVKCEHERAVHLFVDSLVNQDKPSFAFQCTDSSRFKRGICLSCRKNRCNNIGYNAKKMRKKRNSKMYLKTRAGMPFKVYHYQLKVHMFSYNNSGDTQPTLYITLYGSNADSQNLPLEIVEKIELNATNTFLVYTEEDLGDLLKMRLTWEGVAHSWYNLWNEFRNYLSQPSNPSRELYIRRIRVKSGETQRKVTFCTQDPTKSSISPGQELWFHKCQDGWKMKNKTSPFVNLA
Description: as §1, §2

SMILES | IC50 [1] | IC50 [2]
O=C(CCCCCOc1cc(F)cc(F)c1)C(=O)NCc1nnc(-c2ccc(Oc3ccccc3)cc2)o1 [Compound 95] | 1.06 µM | 0.56 µM
O=C(CCCCCCc1ccccc1)C(=O)NCc1nnc(-c2cc(F)cc(F)c2)o1 [Compound 26] | 0.668 µM | 0.436 µM
O=C(CCCCCc1ccccc1)C(=O)NCc1nnc(-c2ccccc2)o1 [Compound 33] | 3.76 µM | 3.35 µM
O=C(CCCCCc1ccccc1)C(=O)NCc1nnc(-c2ccc3ccccc3c2)o1 [Compound 34] | 0.904 µM | 0.473 µM
Cn1ccnc1COc1ccc(-c2nnc(CNC(=O)C(=O)CCCCCCc3ccccc3)o2)cc1 [Compound 78] | 0.944 µM | 0.775 µM
O=C(CCCCCCc1ccccc1)C(=O)NCc1nnc(-c2ccc(Oc3ccccc3)cc2)o1 [Compound 179] | 0.247 µM | 0.135 µM
O=C(CCCCCOc1cccc(F)c1)C(=O)NCc1nnc(-c2ccc(OCc3ccccc3)cc2)o1 [Compound 69, N-((5-(4-(benzyloxy)phenyl)-1,3,4-oxadiazol-2-yl)methyl)-7-(3-fluorophenoxy)-2-oxoheptanamide] | 0.272 µM | 0.835 µM
O=C(CCCCCCc1ccccc1)C(=O)NCc1nnc(-c2ccc(OCc3cc(F)cc(F)c3)cc2)o1 [Compound 90] | 0.548 µM and 0.188 µM | 0.08 µM and 0.159 µM
O=C(CCCCCCc1ccccc1)C(=O)NCc1nnc(-c2ccc(OCc3ccc4ccccc4n3)cc2)o1 [Compound 89] | 0.565 µM | 0.232 µM
O=C(CCCCCCc1ccc(F)nc1)C(=O)NCc1nnc(-c2ccc(OCc3ccnc(F)c3)cc2)s1 [Compound 168] | 0.107 µM | 0.064 µM
CN(c1ccc(Br)cc1)c1ccc(-c2nnc(CNC(=O)C(=O)CCCCCCc3ccccc3)o2)cc1 [Compound 75] | 11.6 µM | 11.2 µM
O=C(CCCCCCc1ccccc1)C(=O)NCc1nnc(-c2ccc(Oc3ccccc3)cc2)s1 [Compound 130] | 0.111 µM | 0.08 µM
O=C(CCCCCCc1ccccc1)C(=O)NCc1nnc(-c2ccc(OCc3cccc(Br)n3)cc2)s1 [Compound 162] | 1.34 µM | 0.202 µM
O=C(CCCCCCc1ccccc1)C(=O)NCc1nnc(-c2ccc(OCc3cccnc3)cc2)o1 [Compound 82] | 0.108 µM | 0.133 µM
O=C(CCCCCCc1ccccc1)C(=O)NCc1nnc(-c2ccc(OCc3cc[n+]([O-])cc3)cc2)s1 [Compound 156] | 0.397 µM | 0.383 µM
O=C(CCCCCCc1ccc(F)nc1)C(=O)NCc1nnc(-c2ccc(OCc3ccncc3)cc2)s1 [Compound 159] | 0.24 µM | 0.174 µM
CN(Cc1ccccn1)c1ccc(-c2nnc(CNC(=O)C(=O)CCCCCCc3ccccc3)o2)cc1 [Compound 111] | 0.236 µM | 0.156 µM
O=C(CCCCCCc1ccccc1)C(=O)NCc1nnc(-c2ccc(OCc3ccccc3)cc2)s1 [Compound 129] | 0.325 µM | 0.264 µM
O=C(CCCCCOc1cccc(F)c1F)C(=O)NCc1nnc(-c2ccc(Oc3ccccc3)cc2)o1 [Compound 102] | 1.97 µM | 0.809 µM
O=C(CCCCCCc1ccccc1)C(=O)NCc1nnc(-c2ccc(OCc3cccc(Cl)c3)cc2)o1 [Compound 76] | 3.07 µM | 1.95 µM
O=C(CCCCCOc1cc(F)cc(F)c1)C(=O)NCc1nnc(-c2ccc(OCc3ccccc3)cc2)o1 [Compound 100] | 1.33 µM | 0.551 µM
O=C(CCCCCCc1ccccc1)C(=O)NCc1nnc(-c2ccc(OCc3cccc(C(=O)O)c3)cc2)o1 [Compound 126] | 0.398 µM | 0.242 µM
O=C(CCCCCCc1ccc(F)nc1)C(=O)NCc1nnc(-c2ccc(Oc3ccccc3)cc2)o1 [Compound 127] | 0.308 µM | 0.281 µM

SMILES | IC50 [1] | IC50 [2]
COc1ccc(COc2ccc(-c3nnc(CNC(=O)C(=O)CCCCCCc4ccccc4)o3)cc2)cc1 [Compound 81] | 11.5 µM | 8.34 µM
N#Cc1ccc(CCCCCCC(=O)C(=O)NCc2nnc(-c3ccccc3)o2)cc1 [Compound 44] | 0.951 µM | 0.641 µM
O=C(CCCCCCc1ccc(C(F)(F)F)nc1)C(=O)NCc1nnc(-c2ccc(Oc3ccccc3)cc2)o1 [Compound 136] | 0.595 µM | 0.406 µM
O=C(CCCCCCc1ccccc1)C(=O)NCc1nnc(-c2cccc(C(F)(F)F)c2)o1 [Compound 21] | 0.684 µM | 0.654 µM
COc1cccc(CCCCCCC(=O)C(=O)NCc2nnc(-c3ccc4ccccc4c3)o2)c1 [Compound 31] | 0.141 µM | 0.12 µM
CC(C)(C)OC(=O)N(Cc1ccccc1)c1ccc(-c2nnc(CNC(=O)C(=O)CCCCCCc3ccccc3)o2)cc1 [Compound 115] | 0.515 µM | 0.254 µM
O=C(CCCCCOc1cccc(F)c1)C(=O)NCc1nnc(-c2ccc(Oc3ccccc3)cc2)o1 [Compound 55] | 0.34 µM | 0.384 µM
O=C(CCCCCCc1ccccc1)C(=O)NCc1nnc(-c2ccc(OCc3ccnc(Cl)c3)cc2)s1 [Compound 173] | 0.037 µM | 0.017 µM
O=C(CCCCCCc1ccccc1)C(=O)NCc1nnc(-c2ccc(C(F)(F)F)cc2)o1 [Compound 22] | 0.268 µM and 0.552 µM | 0.435 µM and 0.396 µM
CC(C)(C)OC(=O)N(Cc1cccnc1)c1ccc(-c2nnc(CNC(=O)C(=O)CCCCCCc3ccccc3)o2)cc1 [Compound 123] | 0.288 µM | 0.182 µM
COc1ccc(C#CCCCC(=O)C(=O)NCc2nnc(-c3ccccc3)o2)cc1 [Compound 41] | 27.2 µM | 24.1 µM
CN(C)CCNC(=O)c1ccc(-c2nnc(CNC(=O)C(=O)CCCCCCc3ccccc3)o2)cc1 [Compound 149] | 4.25 µM | 3.4 µM
O=C(CCCCCCc1ccccc1)C(=O)NCc1nnc(-c2ccc(OCc3cc(F)cc(F)c3)cc2)s1 [Compound 146] | 2.32 µM | 0.224 µM
O=C(CCCCCCc1ccccc1)C(=O)NCc1nnc(-c2ccc(OCc3ccc(Cl)cc3)cc2)o1 [Compound 77] | 33.3 µM | 33.3 µM
O=C(CCCCCNc1ncccn1)C(=O)NCc1nnc(-c2ccc(OCc3ccccc3)cc2)o1 [Compound 176] | 27.9 µM | 27 µM
Cc1ccc(-c2nnc(CNC(=O)C(=O)CCCCCc3ccccc3)o2)cc1 [Compound 35] | 1.13 µM | 0.994 µM
O=C(CCCCCCc1ccccc1)C(=O)NCc1nnc(-c2ccc3ccccc3c2)o1 [Compound 27] | 0.293 µM and 0.129 µM | 0.225 µM and 0.184 µM
COc1cccc(CCCCCCC(=O)C(=O)NCc2nnc(-c3ccc(C)cc3)o2)c1 [Compound 32] | 0.213 µM | 0.165 µM
O=C(CCCCCOc1ccc(F)cc1F)C(=O)NCc1nnc(-c2ccc(OCc3ccccc3)cc2)o1 [Compound 99] | 2.15 µM | 1.05 µM
O=C(CCCCCOc1cc(F)cc(F)c1)C(=O)NCc1nnc(-c2ccccc2)s1 [Compound 108] | 0.626 µM | 1.17 µM
O=C(CCCCCCc1ccccc1)C(=O)NCc1nnc(-c2ccc(OCc3cccc(F)c3)cc2)s1 [Compound 128, N-((5-(4-((3-fluorobenzyl)oxy)phenyl)-1,3,4-thiadiazol-2-yl)methyl)-2-oxo-8-phenyloctanamide] | 0.129 µM | 0.087 µM
O=C(CCCCCOc1cccc(F)c1)C(=O)NCc1nnc(-c2ccc3ccccc3c2)o1 [Compound 54] | 0.916 µM | 0.802 µM
